Results: patent US20070128201A1, “Combined use of ecteinascidin-743 and platinum antineoplastic compounds” (Pharma Mar, S.A.U., priority 2003, published 2007)
Like-named read-outs stand apart in the source and are kept apart here.

Experiments:
[1] = test system: HOC 8 human ovarian xenograft; test: Survival of mice bearing intraperitoneal HOC 8 xenograft; assay type: in vivo
Text: In ovarian carcinoma patients the tumor spreads into the peritoneal cavity. Therefore to mimic clinical disease we have selected a human ovarian xenograft, HOC 8, which was transplanted intraperitoneally from ascites and disseminated in the peritoneal cavity.
When the two drugs were combined the effect was much greater than that of each drug given as single agent with a dramatic increase in survival. […] Three animals were still alive after 12 months, two of them belonging to the group receiving the high ET-743 dose. They were sacrificed and a detailed macroscopic and microscopic pathological evaluation was performed. The mouse belonging to the group receiving the low ET-743 dose was apparently cured as the microscopic analysis of liver, splen, pancreas, bone marrow, diagram, ovary uterus omentum and several lymphnodes were negative.

[2] = assay type: in vivo, human; details: ET-743 with carboplatin at a fixed target (300 mg/m^2), cycle 1 data from 11 patients
Description: We designed a multicenter dose finding trial, on a day 1 every 3 weeks schedule, with carboplatin given at a fixed dose of 300 mg/m^2 as a 1 hour infusion followed by escalating doses of ET given as a 3 hours infusion with steroids and antiemetic prophylaxis.
11 patients were entered (6 with ovarian cancer, 1 with lung cancer, 4 with soft tissue sarcoma). Prior treatments of the patients were the following:
ET-743 doses levels were 500, 650 and 800 μg/m^2/day; 3-6 pts were treated per dose level according to toxicity.
The maximum tolerated dose (MTD) was defined as the highest dose level tested of the combination at which at least 2 patients experience a DLT in cycle 1. If one patient encountered drug-induced DLT during either cycle 1 or 2, up to a maximum of 6 patients could be treated at that level. If DLT was not observed in the additional patients, new patients could be treated at the next higher dose level.

[3] = Dose finding trial ET-743 day 1 & 8 followed by cisplatin: toxicity; assay type: in vivo, human
Description: We designed a multicenter dose finding trial, […], with escalating doses of ET given as a 3-hr infusion with steroids and antiemetic prophylaxis, followed 30 minutes later by 1 hr infusion cisplatin at a fixed dose of 40 mg/m^2, with 2 L NS hydration.
(§1) 36 patients were entered (15 with ovarian cancer, 6 with uterus cancer, 14 with soft tissue sarcoma, 1 with other tumor type). Prior treatments of the patients were the following:
ET-743 doses levels were 300, 400, 500, 600 and 700 μg/m^2/day; 3-6 were treated per dose level according to toxicity.
ET-743 escalation was uneventful until 500 μg/m^2; at 600 μg/m^2 patients were accrued in 2 separate risk cohort according to prior chemotherapy extent: low risk 1 regimen (LR); high risk ≧2 regimens (HR).

[4] = test system: human, murine and canine progenitor cells; details: cited from earlier work
[5] = test system: Ovary, STS gyn, Uterus tumors; test: Dose finding trial ET-743 day 1 & 8 followed by cisplatin: observed efficacy; assay type: in vivo, human
Description: We designed a multicenter dose finding trial, on a day 1 & 8 every 3 weeks schedule, with escalating doses of ET given as a 3-hr infusion with steroids and antiemetic prophylaxis, followed 30 minutes later by 1 hr infusion cisplatin at a fixed dose of 40 mg/m^2, with 2 L NS hydration.
as §1
The following table illustrates the observed efficacy: […]

[6] = Toxicity of single i.v. doses of ET-743, DDP and their combination in xenograft experiments; assay type: in vivo; details: drug alone
Description: For the administration of the drugs appropriate vehicles were injected, using the same schedule and route of injection as the drug therapies. […] In xenografts transplanted s.c. tumor growth was monitored and tumor weight (TW) was determined by measuring the tumor diameters with a Vernier caliper every 2-4 days and using the formula TW=d^2×D/2 (where d and D represent the shortest and the longest diameter respectively).

[7] = Toxicity (body weight loss, toxic deaths) of split dose Q4×3; assay type: in vivo; details: Q4×3, 1A9 xenograft experiment

SMILES | ILS ([1]; DDP monotherapy) | MTD [2] | MTD ([3]; ET-743 with cisplatin 40 mg/m^2, previously treated patients, day 1 & 8 every 4 weeks) | Recommended dose (RD) ([3]; human, in vivo) | sensitivity of hematopoietic progenitors [4] | TTP ([5]; patient: Ovary, prior carboplatin + taxol (NC), topotecan (PD), ET-743 400 μg/m^2 D 1&8 + cisplatin, Lung) | TTP ([5]; patient: Ovary, prior carboplatin + taxol (NE), paclitaxel (PD), ET-743 600 μg/m^2 D 1&8 + cisplatin, Pelvis, liver) | BEST RESP ([5]; patient: Ovary, prior carboplatin + taxol (PR), ET-743 600 μg/m^2 D 1&8 + cisplatin, Liver Abdomen) | TTP ([5]; patient: STS gyn, prior adriamycin/ifosfamide (AD), ET-743 700 μg/m^2 D 1&8 + cisplatin, Lung) | TTP ([5]; patient: STS-gyn, prior epirubicin + ifosfamide (AD), gemcitabine (PD), ET-743 500 μg/m^2 D 1&8 + cisplatin, Abdomen) | BEST RESP ([5]; patient: STS-gyn, prior epirubicin + ifosfamide (AD), gemcitabine (PD), ET-743 500 μg/m^2 D 1&8 + cisplatin, Abdomen, wrapped cell reads Radiological PR non measurable lesions) | TTP ([5]; patient: Uterus Colon, prior carboplatin (NE), taxol + epirubicin + cisplatin (CR), ET-743 400 μg/m^2 D 1&8 + cisplatin, Bone, Pelvis, Lung) | BEST RESP ([5]; patient: Uterus Colon, prior carboplatin (NE), taxol + epirubicin + cisplatin (CR), ET-743 400 μg/m^2 D 1&8 + cisplatin, Bone, Pelvis, Lung, wrapped cell reads Radiological PR non measurable lesions) | maximal single i.v. dose that caused no toxic death [6] | ILS ([1]; ET-743 0.15 mg/kg, Q4×3, monotherapy) | ILS ([1]; ET-743 0.05% (printed), Q4×3, monotherapy) | mean body weight loss [7]
N.N.[Cl][Pt][Cl] [DDP, cis-diaminedichloroplatinum (II), reference compound] | 139% |  |  |  |  |  |  |  |  |  |  |  |  |  |  |  | 
COc1cc2c(cc1O)CCN[C@]21CS[C@@H]2c3c(OC(C)=O)c(C)c4c(c3[C@H](COC1=O)N1C2[C@H]2c3c(cc(C)c(OC)c3O)C[C@@H]([C@@H]1O)N2C)OCO4 (some centres unmarked) [ET-743, ecteinascidin-743] |  | 800 μg/m^2 | 700 μg/m^2 | 500 μg/m^2 | equal sensitivity of erythropoid and myeloid cells | 6 mos | 6+ mos | Unc PR | 3+ mos | 5+ mos | Radiological | 1 mos | Radiological | 0.2 mg/kg | 23% | 21% | 14%
